test system: male guinea-pigs; test: animal or person; type: in vivo; conditions: Cavia porcellus, ip, 2 h, read-out: Antitussive activity ED50-value (i.p.)

| Structure (SMILES) | ED50 [mg/kg] |
| --- | --- |
| COc1ccccc1N1CCN(C(Cc2cccc(C)c2)c2ccccc2)CC1 (stereo not drawn) [Compound 32, l-1-(2-Methoxyphenyl)-4-[1-phenyl-2-(3-tolyl)ethyl]piperazine] | ~6 |
| COc1ccccc1N1CCN(C(Cc2cccc(C)c2)c2ccccc2)CC1 (racemic) [Compound 31, dl-1-(2-Methoxyphenyl)-4-[1-phenyl-2-(3-tolyl)ethyl]-piperazine] | ~6 |
| COc1ccc2c3c1O[C@H]1[C@@H](O)C=C[C@H]4[C@@H](C2)N(C)CC[C@@]341 [L, Codeine phosphate, reference compound] | 12.2 |

From patent US4162316A (priority 1975, dated 1979)
